Our source for the Activity values is ChEMBL document CHEMBL3813616, “Discovery of novel 7-azaindoles as PDK1 inhibitors” (Bioorg Med Chem Lett, 2016).

Holding throughout (parameters): scale not given: the % may be the effect or the level left
For assay [1], the target named is Insulin receptor-related protein (Homo sapiens) (UniProt P14616). In words: Inhibition of human IRR (944 to 1236 residues) assessed as enzyme activity at 1 uM using 33P ATP by radioactive filter binding assay.
Assay [2] deals with Mitogen-activated protein kinase 11 (Homo sapiens) (UniProt Q15759). Briefly: Inhibition of SAPK2b (unknown origin) assessed as enzyme activity at 1 uM using 33P ATP by radioactive filter binding assay.
Assay [3] concerns the target Rho-associated protein kinase 2 (Rattus norvegicus) (UniProt Q62868). In words: Inhibition of rat ROCK2 (2 to 543 residues) assessed as enzyme activity at 1 uM using 33P ATP by radioactive filter binding assay.
For assay [4], the target named is Vascular endothelial growth factor receptor (Homo sapiens) (UniProt P17948+P35916+P35968). In words: Inhibition of human VEGFR assessed as enzyme activity at 1 uM using 33P ATP by radioactive filter binding assay. The assay is classed as protein assay.
Assay [5] addresses Tyrosine-protein kinase CSK (Homo sapiens) (UniProt P41240). In words: Inhibition of human CSK (1 to 450 residues) assessed as enzyme activity at 1 uM using 33P ATP by radioactive filter binding assay.
Assay [6] concerns the target Ribosomal protein S6 kinase alpha-5 (Homo sapiens) (UniProt O75582). Briefly: Inhibition of human MSK1 (2 to 802 residues) assessed as enzyme activity at 1 uM using 33P ATP by radioactive filter binding assay.
Assay [7] has as its target Mitogen-activated protein kinase 3 (Homo sapiens) (UniProt P27361). Briefly: Inhibition of human MAPK3 (2 to 544 residues) assessed as enzyme activity at 1 uM using 33P ATP by radioactive filter binding assay.
Assay [8] concerns the target Mitogen-activated protein kinase 14 (Homo sapiens) (UniProt Q16539). Briefly: Inhibition of SAPK2a (unknown origin) assessed as enzyme activity at 1 uM using 33P ATP by radioactive filter binding assay.
In assay [9] the target is Protein kinase C alpha type (Homo sapiens) (UniProt P17252). In words: Inhibition of human PKCalpha (1 to 672 residues) assessed as enzyme activity at 1 uM using 33P ATP by radioactive filter binding assay.
Assay [10] has as its target Dual specificity tyrosine-phosphorylation-regulated kinase 1A (Homo sapiens) (UniProt Q13627). In words: Inhibition of human DYRK1A (1 to 502 residues) assessed as enzyme activity at 1 uM using 33P ATP by radioactive filter binding assay.
Assay [11] has as its target Insulin receptor (Homo sapiens) (UniProt P06213). In words: Inhibition of human IR (1001 to 1382 residues) assessed as enzyme activity at 1 uM using 33P ATP by radioactive filter binding assay.
Assay [12] concerns the target Serine/threonine-protein kinase pim-1 (Homo sapiens) (UniProt P11309). In words: Inhibition of human PIM1 (2 to 313 residues) assessed as enzyme activity at 1 uM using 33P ATP by radioactive filter binding assay.
For assay [13], the target named is Serine/threonine-protein kinase pim-3 (Homo sapiens) (UniProt Q86V86). Briefly: Inhibition of human PIM3 (2 to 326 residues) assessed as enzyme activity at 1 uM using 33P ATP by radioactive filter binding assay.
Assay [14] addresses T1, Serine/threonine-protein kinase Sgk1 (Homo sapiens) (UniProt O00141).
T1 sequence (whole entry): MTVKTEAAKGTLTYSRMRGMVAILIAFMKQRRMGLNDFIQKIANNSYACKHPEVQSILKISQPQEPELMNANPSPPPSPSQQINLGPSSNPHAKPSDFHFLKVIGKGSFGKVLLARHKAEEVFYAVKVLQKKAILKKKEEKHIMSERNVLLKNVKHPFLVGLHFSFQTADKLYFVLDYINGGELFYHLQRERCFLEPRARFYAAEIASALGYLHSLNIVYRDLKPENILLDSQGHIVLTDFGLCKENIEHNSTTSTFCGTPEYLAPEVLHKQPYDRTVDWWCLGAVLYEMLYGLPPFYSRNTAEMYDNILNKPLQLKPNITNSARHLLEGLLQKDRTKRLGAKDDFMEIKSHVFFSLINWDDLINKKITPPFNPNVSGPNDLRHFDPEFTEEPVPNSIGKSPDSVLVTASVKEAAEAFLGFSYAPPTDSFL
Briefly: Inhibition of human SGK assessed as enzyme activity at 1 uM using 33P ATP by radioactive filter binding assay.

Assay [15] concerns the target T2, Serine/threonine-protein kinase D1 (Homo sapiens) (UniProt Q15139).
T2 sequence (whole entry): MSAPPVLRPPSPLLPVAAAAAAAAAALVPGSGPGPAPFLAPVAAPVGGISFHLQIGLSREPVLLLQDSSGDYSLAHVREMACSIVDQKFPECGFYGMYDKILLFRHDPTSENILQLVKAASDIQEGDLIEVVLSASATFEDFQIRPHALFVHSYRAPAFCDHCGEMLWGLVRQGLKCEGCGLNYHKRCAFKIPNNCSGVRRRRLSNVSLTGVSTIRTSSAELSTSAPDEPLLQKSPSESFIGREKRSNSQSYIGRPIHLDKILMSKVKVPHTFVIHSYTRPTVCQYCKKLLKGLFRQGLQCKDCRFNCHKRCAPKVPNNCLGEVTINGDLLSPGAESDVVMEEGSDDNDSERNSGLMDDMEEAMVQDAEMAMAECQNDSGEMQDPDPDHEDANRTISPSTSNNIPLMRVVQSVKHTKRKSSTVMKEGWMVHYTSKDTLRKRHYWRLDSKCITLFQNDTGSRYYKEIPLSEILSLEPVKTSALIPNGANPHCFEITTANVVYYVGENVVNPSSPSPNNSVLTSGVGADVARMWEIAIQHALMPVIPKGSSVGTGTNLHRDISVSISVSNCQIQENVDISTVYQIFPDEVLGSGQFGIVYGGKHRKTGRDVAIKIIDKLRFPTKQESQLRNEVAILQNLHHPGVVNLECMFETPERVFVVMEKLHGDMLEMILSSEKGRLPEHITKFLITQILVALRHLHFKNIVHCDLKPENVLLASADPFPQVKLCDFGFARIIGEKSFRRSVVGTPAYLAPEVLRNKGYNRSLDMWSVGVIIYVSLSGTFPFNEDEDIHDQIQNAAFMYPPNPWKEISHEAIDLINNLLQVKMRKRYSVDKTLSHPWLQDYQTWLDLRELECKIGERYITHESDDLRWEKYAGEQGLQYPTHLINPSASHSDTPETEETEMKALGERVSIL
Briefly: Inhibition of human PKD1 (2 to 912 residues) assessed as enzyme activity at 1 uM using 33P ATP by radioactive filter binding assay.

The target of assay [16] is Casein kinase I isoform delta (Homo sapiens) (UniProt P48730). In words: Inhibition of human CK1 delta (1 to 415 residues) assessed as enzyme activity at 1 uM using 33P ATP by radioactive filter binding assay.

In the case of `CCCCc1cc(-c2c[nH]c3ncc(-c4cnn(C5CCNCC5)c4)cc23)nc(N)n1`, the Activity in [1] was -86%; in assay [2] it was -21%; in [3], -80%; in assay [4], -97%; in assay [5], -24%; in assay [6] it was -56%. The Activity in assay [7] was -97%; in assay [8], -22%; in [9], -55%; in [10], -92%; in [11] it was -28%; in assay [12], -98%. The Activity was -98% in [13], -78% in assay [14], -98% in assay [15] and -72% in assay [16].
As for `Nc1nccc(-c2c[nH]c3ncccc23)n1` [MERIOLIN 1], the Activity in assay [1] is -9%; in assay [2], -4%; in assay [3] it was -97%; in [4], -44%; in [5] it was 0%; in [6] it was -49%. For the same compound, the Activity is -77% in assay [7]; -5% in assay [8]; -28% in [9]; -95% in [10]; -6% in assay [11]; -62% in assay [12]. For the same compound, the Activity is -61% in assay [13], -42% in assay [14], -41% in assay [15] and -74% in assay [16].
Consider `CCCCc1cc(-c2c[nH]c3ncccc23)nc(N)n1`, for which the Activity is -82% in [1]; -5% in assay [2]; -93% in assay [3]; -5% in assay [5]; -46% in [6]; -54% in [7]. Further, the Activity in [8] is -10%; in [9], -18%; in [10], -90%; in assay [12], -61%; in assay [13], -70%; in [14], -12%. The Activity in [15] is -53%; in assay [16] it was -26%.
For the compound `CCc1cc(-c2c[nH]c3ncc(-c4cnn(C5CCNCC5)c4)cc23)nc(N)n1`, the Activity in [1] is -42%; in [2], -18%; in assay [3], -65%; in [4], -97%; in [5] it was 6%; in assay [6], -43%. In addition, the Activity in assay [7] was -95%; in [8] it was -16%; in assay [9], -73%; in assay [10], -94%; in assay [11], -8%; in [12], -85%. For the same compound, the Activity in [13] was -91%; in [14], -78%; in assay [15], -96%; in assay [16], -67%.
